What was measured:
CCRF-CEM cells [1] = assay: Mitotic cells, pH3Ser10 antibody labeling (flow cytometry); assay type: cell-based, human; settings: CCRF-CEM cells treated at IC50 for 24 hrs
Protocol: (§1) After the incubation period, cells were then washed with cold 1×PBS and fixed in 70% ethanol added dropwise and stored overnight at −20° C. Afterwards, cells were washed in hypotonic citrate buffer, treated with RNase (50 μg/mL) and stained with propidium iodide. Flow cytometry using a 488 nm single-beam laser (Becton Dickinson) was used for measurement. The data were analyzed according to the program ModFitLT (Verity), and apoptosis was expressed as the percentage of cells with a propidium content lower than that in the G0/G1 population. Half of the sample was used for pH3^ser10 antibody (Sigma) labeling and subsequent flow cytometry analysis of mitotic cells.
(§2) However, the major mechanism of action was inhibition of RNA synthesis (BrU incorporation). […] Cell cycle alterations (G1, S, G2/M) were not observed in treated cells under specified experimental conditions.

CCRF-CEM cells [2] = assay: BrdU incorporation analysis (DNA synthesis); assay type: cell-based, human; settings: for BrdU+ (DNA synthesis), % of total cell populations: CCRF-CEM cells treated at IC50 for 24 hrs; for DNA synthesis inhibition in words: CCRF-CEM, IC50, 24 hours
Protocol: Cells were cultured as for cell cycle analysis. Before harvesting, they were pulse-labelled with 10 M 5-bromo-2′-deoxyuridine (BrdU) for 30 min. The cells were trypsinized, fixed with ice-cold 70% ethanol, incubated on ice for 30 min, washed with PBS, and resuspended in 2 M HCl for 30 min at room temperature to denature their DNA. Following neutralization with 0.1 M Na2B4O7, the cells were washed with PBS containing 0.5% Tween-20 and 1% BSA. They were then stained with primary anti-BrdU antibody (Exbio) for 30 min at room temperature in the dark. Cells were than washed with PBS and stained with secondary anti-mouse-FITC antibody (Sigma). The cells were then washed with PBS, incubated with propidium iodide (0.1 mg/mL) and RNAse A (0.5 mg/mL) for 1 h at room temperature in the dark, and finally analyzed by flow cytometry using a 488 nm single-beam laser (FACSCalibur, Becton Dickinson).
as §2

CCRF-CEM cells [3] = assay: BrU incorporation analysis (RNA synthesis); assay type: cell-based, human; settings: CCRF-CEM cells treated at IC50 for 24 hrs
Protocol: Cells were cultured and treated as for cell cycle analysis. Before harvesting, they were pulse-labelled with 1 mM 5-bromouridine (BrU) for 30 min. The cells were fixed in 1% buffered paraformaldehyde with 0.05% of NP-40, incubated in room temperature for 15 min and than in the fridge overnight. They were then washed in 1% glycin in PBS, washed in PBS and stained with primary anti-BrdU antibody crossreacting to BrU (Exbio) for 30 min at room temperature in the dark. Cells were than washed with PBS and stained with secondary anti-mouse-FITC antibody (Sigma). Following the staining the cells are washed with PBS and fixed with 1% PBS buffered paraformaldehyde with 0.05% of NP-40. The cells were then washed with PBS, incubated with propidium iodide (0.1 mg/mL) and RNAse A (0.5 mg/mL) for 1 h at room temperature in the dark, and finally analyzed by flow cytometry using a 488 nm single-beam laser (FACSCalibur, Becton Dickinson).
as §2

CCRF-CEM cells [4] = assay: Cell cycle and apoptosis analysis (flow cytometry, propidium iodide); assay type: cell-based, human; settings: CCRF-CEM cells treated at IC50 for 24 hrs
Protocol: as §1, §2

HCT116p53-/- = assay: Cytostatic/cytotoxic MTT assay, HCT116p53-/-; assay type: cell-based; settings: Homo sapiens, HCT-116; 72 h incubation; read-out: MTT, IC50 HCT116 p53-/-
From the text: Unless otherwise stated, all cells were purchased from the […] (ATCC). The CCRF-CEM line is derived from T lymphoblastic leukemia, evincing high chemosenzitivity, K562 represent cells from a […] patient sample with bcr-abl translocation, HCT116 is colorectal tumor cell line and its p53 gene knock-down counterpart (HCT116p53−/−, Horizon Discovery, UK) is a model of human cancers with p53 inactivation frequently associated with poor prognosis, A549 cell line is lung adenocarcinoma. The daunorubicin resistant subline of CCRF-CEM cells (CEM-DNR bulk) and paclitaxel resistant subline K562-TAX were selected in our laboratory by cultivation of maternal cell lines in increasing concentrations of daunorubicine or paclitaxel, respectively. The CEM-DNR cells overexpress mrp-1 and mdr-1 genes, while K562-TAX cells overexpress mdr-1 only. Both proteins belong to the family of ABC transporters and are involved in the primary and/or acquired multidrug resistance phenomenon (ref.: Gottesman, M. M.; Fojo, T.; Bates, S. E. Multidrug resistance in cancer: role of ATP-dependent transporters. Nat. Rev. Cancer. 2002, 2, 48-58. (b) Noskova, V.; Dzubak, P.; Kuzmina, G.; Ludkova, A.; Stehlik, D.; Trojanec, R.; Janostakova, A.; Korinkova, G.; Mihal, V.; Hajduch, M. In vitro chemoresistance profile and expression/function of MDR associated proteins in resistant cell lines derived from CCRF-CEM, K562, A549 and MDA MB 231 parental cells. Neoplasma 2002, 49, 418-425). Non-malignant MRC-5 and BJ cells, derived from normal human fibroblasts, were used as controls. The cells were maintained in Nunc/Corning 80 cm^2 plastic tissue culture flasks and cultured in cell culture medium (DMEM/RPMI 1640 with 5 g/L glucose, 2 mM glutamine, 100 U/mL penicillin, 100 µg/mL streptomycin, 10% fetal calf serum, and NaHCO3). Cell suspensions were prepared and diluted according to the particular cell type and the expected target cell density (25,000-30,000 cells/well based on cell growth characteristics). Cells were added by pipette (80 L) into 96-well microtiter plates. Inoculates were allowed a pre-incubation period of 24 h at 37° C. and 5% CO2 for stabilization. Four-fold dilutions, in 20-L aliquots, of the intended test concentration were added to the microtiter plate walls at time zero. All test compound concentrations were examined in duplicate. Incubation of the cells with the test compounds lasted for 72 h at 37° C., in a 5% CO2 atmosphere at 100% humidity. At the end of the incubation period, the cells were assayed using MTT. Aliquots (10 L) of the MTT stock solution (5 mg/ml) were pipetted into each well and incubated for another 1-4 h. After this incubation period the formazan produced was dissolved by addition of 100 µL/well of 10% aq SDS (pH 5.5), followed by a further incubation at 37° C. overnight. The optical density was measured at 540 nm. The IC50 value, the drug concentration inhibiting the cell growth by 50%, was calculated from appropriate dose-response curves.
In vitro cytotoxic/cytostatic activity final nucleosides 1-5 was initially evaluated against […] cell lines derived from human solid tumors including lung (A549 cells) and colon (HCT116 and HCT116p53−/−) carcinomas, as well as leukemia cell lines (CCRF-CEM, CEM-DNR, K562 and K562-TAX) and, for comparison, non-malignant BJ and MRC-5 fibroblasts. Concentrations inhibiting the cell growth by 50% (IC50) were determined using a quantitative metabolic staining with 3-(4,5-dimethylthiazol-2-yl)-2,5-diphenyltetrazolium bromide (MTT) (ref.: Denizot, F.; Lang, R. Rapid colorimetric assay for cell growth and survival: Modifications to the tetrazolium dye procedure giving improved sensitivity and reliability. J. Immunol. Meth. 1986, 89, 271-277) following a 3-day treatment.
Multidrug resistance is a major therapeutic problem in cancer chemotherapy. […]

Row | SMILES | pH3Ser10+ (mitosis), % of total cell populations (CCRF-CEM cells [1]) | BrdU+ (DNA synthesis), % of total cell populations (CCRF-CEM cells [2]) | DNA synthesis inhibition in words (CCRF-CEM cells [2]) | BrU+ (RNA synthesis), % of total cell populations (CCRF-CEM cells [3]) | G1, % of total cell populations (CCRF-CEM cells [4]) | G2/M, % of total cell populations (CCRF-CEM cells [4]) | S, % of total cell populations (CCRF-CEM cells [4]) | sub-G1 (apoptosis), % of total cell populations (CCRF-CEM cells [4]) | IC50 (HCT116p53-/-) | melting point
1 | COc1ncnc2c1c(I)cn2[C@@H]1O[C@H](CO)[C@@H](O)[C@H]1O [Compound 1h, 5-iodo-4-methoxy-7-(β-D-ribofuranosyl)-7H-pyrrolo[2,3-d]pyrimidine, reference compound] | 0.9% | 38.9% | barely inhibited | 0.2% | 37.9% | 12.9% | 49.2% | 6% | > 20000 nM | –
2 | CNc1ncnc2c1c(-c1ccco1)cn2[C@@H]1O[C@H](CO)[C@@H](O)[C@H]1O [Compound 3a, 5-(Furan-2-yl)-4-methylamino-7-(β-D-ribofuranosyl)-7H-pyrrolo[2,3-d]pyrimidine] | 1.4% | 47.2% | – | 1. % | 42.2% | 12.1% | 45.8% | 10.6% | 440 nM | –
3 | COc1ncnc2c1c(-c1cccs1)cn2[C@@H]1O[C@H](CO)[C@@H](O)[C@H]1O [Compound 1c, 4-Methoxy-7-(β-D-ribofuranosyl)-5-(thiophen-2-yl)-7H-pyrrolo[2,3-d]pyrimidine] | 1.1% | 38.6% | – | 0.1% | 41.5% | 9.8% | 48.7% | 7.5% | 440 nM | 140 to 143 °C
4 | CSc1ncnc2c1c(-c1ccco1)cn2[C@@H]1O[C@H](CO)[C@@H](O)[C@H]1O [Compound 2a, 5-(Furan-2-yl)-4-methylsulfanyl-7-(β-D-ribofuranosyl)-7H-pyrrolo[2,3-d]pyrimidine] | 0.7% | 29.5% | barely inhibited | 5% | 43.5% | 11.3% | 45.3% | 7.9% | 10 nM | –
5 | CNc1ncnc2c1c(-c1cccs1)cn2[C@@H]1O[C@H](CO)[C@@H](O)[C@H]1O [Compound 3c, 4-Methylamino-7-(β-D-ribofuranosyl)-5-(thiophen-2-yl)-7H-pyrrolo[2,3-d]pyrimidine] | – | – | – | – | – | – | – | – | > 20000 nM | 183 to 185 °C
6 | CN(C)c1ncnc2c1c(-c1ccco1)cn2[C@@H]1O[C@H](CO)[C@@H](O)[C@H]1O [Compound 4a, 4-Dimethylamino-5-(furan-2-yl)-7-(β-D-ribofuranosyl)-7H-pyrrolo[2,3-d]pyrimidine] | 1.5% | 50.6% | – | 0.4% | 31% | 15.4% | 53.6% | 10.2% | 320 nM | –
7 | COc1ncnc2c1c(-c1ccco1)cn2[C@@H]1O[C@H](CO)[C@@H](O)[C@H]1O [Compound 1a, 5-(Furan-2-yl)-4-methoxy-7-(β-D-ribofuranosyl)-7H-pyrrolo[2,3-d]pyrimidine] | 1.4% | 45.3% | – | 13.8% | 42.8% | 12.9% | 44.3% | 6.8% | 40 nM | –
8 | C#Cc1cn([C@@H]2O[C@H](CO)[C@@H](O)[C@H]2O)c2ncnc(N(C)C)c12 [Compound 4g, 4-Dimethylamino-5-ethynyl-7-(β-D-ribofuranosyl)-7H-pyrrolo[2,3-d]pyrimidine] | 1.3% | 43.4% | – | 8.6% | 38.5% | 14.7% | 46.8% | 8.9% | 290 nM | –
9 | CN(C)c1ncnc2c1c(-c1ccsc1)cn2[C@@H]1O[C@H](CO)[C@@H](O)[C@H]1O [Compound 4d, 4-Dimethylamino-7-(β-D-ribofuranosyl)-5-(thiophen-3-yl)-7H-pyrrolo[2,3-d]pyrimidine] | 0.7% | 36.1% | barely inhibited | 0.7% | 41.4% | 11.2% | 47.4% | 6.8% | > 20000 nM | –
10 | CSc1ncnc2c1c(-c1ccccc1)cn2[C@@H]1O[C@H](CO)[C@@H](O)[C@H]1O [Compound 2e, 4-Methylsulfanyl-5-phenyl-7-(β-D-ribofuranosyl)-7H-pyrrolo[2,3-d]pyrimidine] | – | – | – | – | – | – | – | – | > 20000 nM | 169 to 170 °C
11 | CNc1ncnc2c1c(-c1ccccc1)cn2[C@@H]1O[C@H](CO)[C@@H](O)[C@H]1O [Compound 3e, 4-Methylamino-5-phenyl-7-(β-D-ribofuranosyl)-7H-pyrrolo[2,3-d]pyrimidine] | – | – | – | – | – | – | – | – | > 100000 nM | 149 to 153 °C

Source: patent US9586986B2, “Substituted 7-deazapurine ribonucleosides for therapeutic uses” (Institute of Organic Chemistry and Biochemistry ASCR, v.v.i., priority 2014, dated 2017)
